The values below are quoted from earlier work in patent US20030096243A1, “Methods and reagents for live-cell gene expression quantification” (priority 2000, published 2003).

One data set addresses T1, N protein (Escherichia phage lambda, UniProt P03045).
T1 sequence (P03045 1-107): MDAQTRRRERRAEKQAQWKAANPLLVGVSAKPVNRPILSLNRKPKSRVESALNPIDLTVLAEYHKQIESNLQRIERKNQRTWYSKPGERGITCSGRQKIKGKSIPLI
As to conditions: native sequence GCCCUGAAAAAGGGC (SEQ ID NO: 45).

Data set [1] relates to boxB RNA stem-loop structure.

Ends that are not written are not given here. * marks the point of attachment. FITC = O=C1OC2(c3ccc(O)cc3Oc3cc(O)ccc32)c2ccc(NC(=S)*)cc21

Regarding “GCCCUAAAAAAGGGC (chemistry not given here) [SEQ ID NO: 44]”, the “in vivo activity relative to the native boxB sequence” value with N protein was “less than 1%”.

For the substance “GCCCUAGAAAAGGGC (chemistry not given here) [SEQ ID NO: 46]”, the “in vivo activity relative to the native boxB sequence” value with N protein was ~90%. With “N1-22: arginine-rich peptide comprising the first twenty-two amino acids of bacteriophage λ N protein ({FITC}-MDAQTRRRERRAEKQAQWKAANKG; not fully specified (residue 23); also: doubly labeled)”, the “affinity for boxB RNA” value in data set [1] is “high affinity”.
